Source: US20130203805A1, “Methods for treating anemia using inhibitors of hypoxia-inducible factor (HIF) hydroxylase” (FIBROGEN, INC., priority 2001, published 2013)

Tests used:
erythropoietin [1] = experiment: Dose response in vivo: serum erythropoietin (Example 3); design: species or system Sprague Dawley male rats; conditions: rats; oral gavage 350 mg/kg on two days or 100 mg/kg daily days 1 to 7; within 1 day of treatment; FIG. 4A
Procedure: Twelve Sprague Dawley male rats (approx. 260 g) were obtained from Charles River Laboratories, Inc., and treated by oral gavage as follows: (1) Four rats were dosed daily for days 1 to 7 with 0.5% carboxymethyl cellulose (CMC; Sigma-Aldrich, St. Louis Mo.) (0 mg/kg), were not treated for days 8 to 14, and then were dosed daily for days 15 to 19 with 0.5% CMC (0 mg/kg); (2) four animals were treated on day 0 and day 3 with a total of 7 ml/kg/day of 5.0% compound C (50 mg/ml in 0.5% CMC) (350 mg/kg), were not treated days 8 to 14, and then were dosed daily for days 15 to 19 with 3% compound C: (30 mg/ml in 0.5% CMC) (60 mg/kg/day); and (3) four animals were treated daily for days 1 to 7 with a total volume of 4 ml/kg/day of 2.5% compound C (25 mg/ml in 0.5% CMC) (100 mg/kg), were not treated days 8 to 14, and then were dosed daily for days 15 to 19 with 3% compound C (60 mg/kg/day). Thus, groups (2) and (3) received a total of 700 mg compound/kg body weight over the first 7 days, no treatment from days 8 to 14, and then 60 mg/kg/day for another 5 days. Animals were monitored for change in body weight and signs of toxicity. Blood samples (2×0.5 ml) were collected on days 1, 3, 7, 10, 17 and 21 as follows. Animals were anesthetized with isoflurane and 0.5 ml of blood was collected from the tail vein of each animal into each of two MICROTAINER EDTA-2K tubes (Becton-Dickinson). […]

[2] = tested on: erythropoietin gene expression; experiment: Erythropoietin gene expression in liver and kidney by quantitative PCR (Example 2, Experiment I); type: in vivo, Swiss Webster male mice; conditions: mice, 200 mg/kg/day oral gavage twice daily 2.5 days (5 doses), 4 h after final dose, FIG. 2A
Procedure: Twelve Swiss Webster male mice (30-32 g) were obtained from Simonsen, Inc. (Gilroy Calif.), and treated by oral gavage two times per day for 2.5 days (5 doses) with a 4 ml/kg volume of either 0.5% carboxymethyl cellulose (CMC; Sigma-Aldrich, St. Louis Mo.) (0 mg/kg/day) or 2.5% Compound C (25 mg/ml in 0.5% CMC) (200 mg/kg/day). Four hours after the final dose, animals were anesthetized with isoflurane and two blood samples were collected from the abdominal vein. One blood sample was collected into a MICROTAINER serum separator tube (Becton-Dickinson, Franklin Lakes N.J.), and incubated at room temperature for 30 minutes, centrifuged at 8,000 rpm at 4° C. for 10 minutes. The serum fraction was then processed and analyzed for erythropoietin (EPO) expression using a QUANTIKINE immunoassay (R&D Systems) according to the manufacturer's instructions. […] Hematocrit was measured by drawing EDTA-blood into a 75 mm×1.1-12 mm I.D. capillary tube (Chase Scientific Glass, Inc., Rockwood Tenn.) to approximately ¾ length. […] Hematocrit was read against a reader card. […]
RNA isolation was carried out using the following protocol. […] The RNA was eluted into 80 μL of water and quantitated with RIBOGREEN reagent (Molecular Probes, Eugene Oreg.). […] The absorbance at 260 and 280 nm was measured to determine RNA purity and concentration. […]
The relative level of 18S ribosomal RNA gene expression was measured as a control. […]

erythropoietin [3] = experiment: Erythropoietin production following bilateral nephrectomy: serum erythropoietin (Example 8); type: in vivo; conditions: rats, 100 or 150 mg/kg oral gavage at 2 and 20 hours post-surgery, blood at 24 hours, FIG. 7
Procedure: The ability of a compound of the invention to induce endogenous erythropoietin production in the absence of functioning kidney was assayed using a procedure described by Jacobson et al, (1957, Nature 179:633-634.) Briefly, rats were anesthetized under isoflurane and a midline abdominal incision was made under sterile conditions. The kidney capsules were peeled off, the pedicles were ligated, and both kidneys were removed. The abdomen was then closed and the animal was allowed to recover.
Animals were treated by oral gavage at 2 and 20 hours post-surgery with either 0.5% carboxymethyl cellulose (CMC; Sigma-Aldrich, St. Louis Mo.) or with compound C at 100 or 150 mg/kg. Blood samples (0.6 ml) were collected at 24 hours as follows. Animals were anesthetized with isoflurane and blood was collected from the tail vein into a MICROTAINER EDTA-2K tube (Becton-Dickinson). Blood samples were processed for erythropoietin levels and hematocrit as described in Example 2. Complete Blood Count (CBC) analysis, including blood hemoglobin level, reticulocyte number, and hematocrit, was performed by IDEXX veterinary service (W. Sacramento, Calif.).

## O=C(O)CNC(=O)c1nc(Cl)c2ccccc2c1O [Compound C, [(1-chloro-4-hydroxy-isoquinoline-3-carbonyl)-amino]-acetic acid]
Erythropoietin [1]
  serum erythropoietin level: significantly increased
[2]; relative to untreated kidney
  increase over background in EPO transcript level, kidney: approximately 580 fold
[2]; relative to untreated liver
  increase over background in EPO transcript level, liver: approximately 32 fold
Erythropoietin [3]
  serum erythropoietin levels, sham-operated animals: significantly increased
Erythropoietin [3]; relative to untreated BN and sham controls
  serum erythropoietin levels, bilaterally nephrectomized animals: noticably increased
